According to US20220117938A1, “COMBINATON THERAPY WITH A DON PRODRUG AND AN IMMUNE CHECKPOINT INHIBITOR” (DRACEN PHARMACEUTICALS, INC., priority 2019, published 2022):

How the values were obtained:
[1] = system: Cells; assay: Cell viability, CTG luminescence, 72 h (Example 7, Experiment 1); assay type: cell-based
Protocol: Cells were cultured in the appropriate medium at 37° C. and 5% CO2 atmosphere. Cells were harvested by trypsinization, spun at 800 rpm for 5 min and resuspended in medium. The cell concentration was adjusted with medium and seeded at a cell density of 3000 cells in 90 μL per well in 96-well plates, and incubated overnight at 37° C. and 5% CO2. After 24 hours, the 1 mM test compound (either Compound 1 or DON) was successively diluted into 7 concentrations according to a three-fold gradient respectively, and 10 μl/well drug was added. The final concentrations were 100 μM, 33.33 μM, 11.11 μM, 3.7 μM, 1.24 μM, 0.41 μM, 0.14 μM, and 0.046 μM. The 100 μM Positive Control drug was successively diluted in 7 concentrations according to a three-fold gradient, and 10 μl/well drug was added. The final concentrations were 10 μM, 3.333 μM, 1.111 μM, 0.37 μM, 0.124 μM, 0.041 μM, 0.014 μM and 0.0046 μM. Cells were incubated for 72 h at 37° C. and 5% CO2. 100 μL CTG reagent was then added to each well. Plates were shaken for 2 min and placed 10 min at room temperature. Luminescence was recorded on Perkin Elmer Envision 2104 Multilabel Reader. IC50's were obtained by fitting curve using GraphPad Prism5 software. In all cases the treatment time was 72 h.

[2] = system: CT26.WT tumors; assay: Anti-tumor efficacy of Compound 1 in the CT26.WT model: schedule comparison (Example 5); assay type: in vivo, mice; conditions: for Mean Tumor Vol / TGI: Day 14; for Mean Tumor Vol / TGI / Cures / ILS: sc
Protocol: Female BALB/c mice were inoculated subcutaneously at right flank with CT26.WT cells for tumor development. Treatment started on day 6 after tumor inoculation when the tumor size reached 40-79 mm^3 (average tumor size 57 mm^3). Each group consisted of 8 tumor-bearing mice. The tumor sizes were measured three times per week during the treatment. The entire study was terminated on D57 after start of the treatment. Otherwise, the experimental methods and procedures are similar to those described in EXAMPLE 2B.

[3] = Homo sapiens, BT-474, 72 h, BT-474
[4] = Homo sapiens, BT-549, 72 h, BT-549
[5] = Homo sapiens, CAPAN-1, 72 h, Capan-1
[6] = Homo sapiens, HCC1395, 72 h, HCC1395
[7] = Homo sapiens, HCC1806, 72 h, HCC1806
[8] = Homo sapiens, HCC1937, 72 h, HCC1937
[9] = Homo sapiens, HCC1954, 72 h, HCC1954
[10] = Homo sapiens, HGC-27, 72 h, HGC-27
[11] = Homo sapiens, HL-60, 72 h, HL60
[12] = Homo sapiens, Huh-7, 72 h, HuH-7
[13] = Homo sapiens, KARPAS-299, 72 h, KARPAS-299
[14] = Homo sapiens, KATO III, KATO-III
[15] = Homo sapiens, LN-18, 72 h, LN-18
[16] = Homo sapiens, MDA-MB-231, 72 h, MDA-MB-231
[17] = Homo sapiens, MDA-MB-361, 72 h, MDA-MB-361
[18] = Homo sapiens, MKN-45, 72 h, MKN-45
[19] = Homo sapiens, MOLT-4, 72 h, MOLT-4
[20] = Homo sapiens, NCI-H23, 72 h, NCI-H23
[21] = Homo sapiens, NCI-H226, 72 h, NCI-H226
[22] = Homo sapiens, NCI-H358, 72 h, NCI-H358
[23] = Homo sapiens, NCI-H661, 72 h, NCI-H661
[24] = Homo sapiens, NCI-H929, 72 h, NCI-H929
[25] = Homo sapiens, NCI-H1299, 72 h, NCI-H1299
[26] = Homo sapiens, NCI-H1650, 72 h, NCI-H1650
[27] = Homo sapiens, OVCAR-3, 72 h, OVCAR-3
[28] = Homo sapiens, RPMI-7951, 72 h, RPMI-7951
[29] = Homo sapiens, SK-MES-1, 72 h, SK-MES-1
[30] = Homo sapiens, SNB-19, 72 h, SNB-19
[31] = Homo sapiens, SNU-449, 72 h, SNU-449
[32] = Homo sapiens, SW480, 72 h, SW480
[33] = Homo sapiens, U-937, 72 h, U-937
[34] = Homo sapiens, ZR-75-1, 72 h, ZR-75-1
[35] = Homo sapiens, ZR-75-30, 72 h, ZR-75-30
[36] = Group 2: 1.4 mpk 5-days ON 2-days OFF x4 cycles
[37] = Group 3: 1.4 mpk 5-days ON 2-days OFF x2 cycles followed by 3-days ON (Mon-Wed) 4-days OFF x2 cycles
[38] = Group 4: 1.4 mpk 5-days ON 2-days OFF x2 cycles followed by 3-days ON (Mon, Wed, Fri) 4-days OFF x2 cycles
[39] = Group 5: 2.33 mpk 3-days ON (Mon-Wed) 4-days OFF x4 cycles
[40] = Group 6: 2.33 mpk 3-days ON (Mon, Wed, Fri) 4-days OFF x4 cycles
[41] = Group 7: 0.5 mpk 5-days ON 2-days OFF x4 cycles
[42] = Group 8: 0.83 mpk 3-days ON (Mon-Wed) 4-days OFF x4 cycles
[43] = Group 9: 0.83 mpk 3-days ON (Mon, Wed, Fri) 4-days OFF x4 cycles

Structure (SMILES): CC(=O)N[C@@H](Cc1c[nH]c2ccccc12)C(=O)N[C@@H](CCC(=O)C=[N+]=[N-])C(=O)OC(C)C [Compound 1, Isopropyl (S)-2-((S)-2-acetamido-3-(1H-indol-3-yl)propanamido)-6-diazo-5-oxohexanoate]
- IC50 ([1]; AGS): 19.9 µM
- IC50 ([1]; C3A): 8.39 µM
- IC50 ([1]; Homo sapiens, 143B): 2.44 µM
- IC50 ([1]; Homo sapiens, 769-P): 2.08 µM
- IC50 [1, 3]: 9.8 µM
- IC50 [1, 4]: 30.8 µM
- IC50 [1, 5]: 29.3 µM
- IC50 ([1]; Homo sapiens, Daudi): 1.07 µM
- IC50 [1, 6]: 59.8 µM
- IC50 [1, 7]: 3.86 µM
- IC50 [1, 8]: 156 µM
- IC50 [1, 9]: 3.33 µM
- IC50 [1, 10]: 13.3 µM
- IC50 [1, 11]: 2.03 µM
- IC50 [1, 12]: 1.27 µM
- IC50 ([1]; Homo sapiens, Jurkat): 0.656 µM
- IC50 [1, 13]: 0.636 µM
- IC50 [1, 14]: 10.7 µM
- IC50 [1, 15]: 4.15 µM
- IC50 [1, 16]: 2.88 µM
- IC50 [1, 17]: 117 µM
- IC50 ([1]; Homo sapiens, MDA-MB-435S): 45.4 µM
- IC50 [1, 18]: 1.65 µM
- IC50 [1, 19]: 3.03 µM
- IC50 ([1]; Homo sapiens, Malme-3M): 19.9 µM
- IC50 [1, 20]: 3.53 µM
- IC50 [1, 21]: 14.5 µM
- IC50 ([1]; Homo sapiens, NCI-H322M): 49.1 µM
- IC50 [1, 22]: 9.61 µM
- IC50 [1, 23]: 131 µM
- IC50 [1, 24]: 13.8 µM
- IC50 [1, 25]: 9.2 µM
- IC50 [1, 26]: 6.61 µM
- IC50 [1, 27]: 34.1 µM
- IC50 [1, 28]: 0.894 µM
- IC50 ([1]; Homo sapiens, Raji): 3.13 µM
- IC50 ([1]; Homo sapiens, SH-SY5Y): 9.1 µM
- IC50 [1, 29]: 71.5 µM
- IC50 [1, 30]: 3.21 µM
- IC50 [1, 31]: 38.6 µM
- IC50 [1, 32]: 88.1 µM
- IC50 ([1]; Homo sapiens, T98G): 3.39 µM
- IC50 [1, 33]: 0.811 µM
- IC50 [1, 34]: 137 µM
- IC50 [1, 35]: 282 µM
- IC50 ([1]; NAMALWA): 1.05 µM
- IC50 ([1]; RKO): 3.64 µM
- IC50 ([1]; T84): 125 µM
- IC50 ([1]; TT): 77.1 µM
- IC50 ([1]; U266B1): 0.451 µM
- ILS (maximum median survival) ([2]; 1.4 mg/kg 5-day ON 2-day OFF): 106%
- Long term cure ([2]; 1.4 mg/kg 5-day ON 2-day OFF, animals cured/animals in group): 1/8
- Tumor growth inhibition, schedule switch compared to 1.4 mg/kg 5-day ON 2-day OFF×4 cycles ([2]; 1.4 mg/kg, switching from 5-day ON 2-day OFF to 3-day ON 4-day OFF on Day 14): reduced tumor growth inhibition
- Efficacy and survival benefit, Mon-Wed compared with Mon, Wed, Fri dosing ([2]; 3-day ON 4-day OFF schedules, equivalent total dose per cycle): equivalent efficacy and survival benefit
- Tumor growth inhibition and survival benefit compared to 3-day ON 4-day OFF schedules ([2]; 5-day ON 2-day OFF schedule, equivalent total dose per cycle, 4 weeks): superior tumor growth inhibition and survival benefit
- Mean Tumor Vol [2, 36]: 163 ± 25 mm^3
- TGI [2, 36]: 92%
- Mean Tumor Vol [2, 37]: 155 ± 27 mm^3
- TGI [2, 37]: 93%
- Mean Tumor Vol [2, 38]: 164 ± 12 mm^3
- TGI [2, 38]: 92%
- Mean Tumor Vol [2, 39]: 169 ± 32 mm^3
- TGI [2, 39]: 92%
- Mean Tumor Vol [2, 40]: 240 ± 45 mm^3
- TGI [2, 40]: 87%
- Mean Tumor Vol [2, 41]: 302 ± 41 mm^3
- TGI [2, 41]: 82%
- Mean Tumor Vol [2, 42]: 484 ± 87 mm^3
- TGI [2, 42]: 69%
- Mean Tumor Vol [2, 43]: 488 ± 74 mm^3
- TGI [2, 43]: 68%
- Cures [2, 36]: 12.5%
- ILS [2, 36]: 106%
- Cures [2, 37]: 0%
- ILS [2, 37]: 67%
- Cures [2, 38]: 12.5%
- ILS [2, 38]: 94%
- Cures [2, 39]: 0%
- ILS [2, 39]: 86%
- Cures [2, 40]: 0%
- ILS [2, 40]: 94%
- Cures [2, 41]: 0%
- ILS [2, 41]: 67%
- Cures [2, 42]: 0%
- ILS [2, 42]: 67%
- Cures [2, 43]: 0%
- ILS [2, 43]: 39%

Structure (SMILES): [N-]=[N+]=CC(=O)CC[C@H](N)C(=O)O [DON, 6-Diazo-5-oxo-L-norleucine, reference compound]
- IC50 ([1]; AGS): 13.8 µM
- IC50 ([1]; C3A): 2.4 µM
- IC50 ([1]; Homo sapiens, 143B): 1.06 µM
- IC50 ([1]; Homo sapiens, 769-P): 1.85 µM
- IC50 [1, 3]: 15.1 µM
- IC50 [1, 4]: 5.82 µM
- IC50 [1, 5]: 67.5 µM
- IC50 ([1]; Homo sapiens, Daudi): 0.388 µM
- IC50 [1, 6]: 32.3 µM
- IC50 [1, 7]: 0.72 µM
- IC50 [1, 8]: 156 µM
- IC50 [1, 9]: 0.951 µM
- IC50 [1, 10]: 10 µM
- IC50 [1, 11]: 3.61 µM
- IC50 [1, 12]: 5.94 µM
- IC50 ([1]; Homo sapiens, Jurkat): 0.368 µM
- IC50 [1, 13]: 0.309 µM
- IC50 [1, 14]: 2.96 µM
- IC50 [1, 15]: 2.71 µM
- IC50 [1, 16]: 1.78 µM
- IC50 [1, 17]: 235 µM
- IC50 ([1]; Homo sapiens, MDA-MB-435S): 64.4 µM
- IC50 [1, 18]: 7.52 µM
- IC50 [1, 19]: 2.38 µM
- IC50 ([1]; Homo sapiens, Malme-3M): 36.6 µM
- IC50 [1, 20]: 1.66 µM
- IC50 [1, 21]: 1.87 µM
- IC50 ([1]; Homo sapiens, NCI-H322M): 4.78 µM
- IC50 [1, 22]: 0.974 µM
- IC50 [1, 23]: 70.6 µM
- IC50 [1, 24]: 11.8 µM
- IC50 [1, 25]: 1.82 µM
- IC50 [1, 26]: 1.89 µM
- IC50 [1, 27]: 31 µM
- IC50 [1, 28]: 3.47 µM
- IC50 ([1]; Homo sapiens, Raji): 2.04 µM
- IC50 ([1]; Homo sapiens, SH-SY5Y): 4.71 µM
- IC50 [1, 29]: 145 µM
- IC50 [1, 30]: 2.03 µM
- IC50 [1, 31]: 2.18 µM
- IC50 [1, 32]: 100 µM
- IC50 ([1]; Homo sapiens, T98G): 1.38 µM
- IC50 [1, 33]: 0.566 µM
- IC50 [1, 34]: 101 µM
- IC50 [1, 35]: 982 µM
- IC50 ([1]; NAMALWA): 0.333 µM
- IC50 ([1]; RKO): 3.22 µM
- IC50 ([1]; T84): 100 µM
- IC50 ([1]; TT): 42.9 µM
- IC50 ([1]; U266B1): 0.413 µM
